What was measured:
[1] = tested on: HCT-116 MTAP(-/-) deficient cells; assay: Inhibition of proliferation of HCT-116 MTAP(-/-) deficient cells (Cell-Titer Glo); type: cell-based; conditions: 8 days
Method: Test 1: Compound's inhibitory activity on proliferation of HCT-116 MTAP(-/-) deficient cells.
Materials and Cells: HCT-116 MTAP(-/-) deficient cells obtained from Kyinno Bio (China); RPMI-1640 medium, fetal bovine serum, and penicillin-streptomycin purchased from Thermo Fisher Scientific (America); 384-well plates from PerkinElmer (America); Cell-Titer Glo assay kit from Promega (America).
Cell Culture: HCT116 MTAP(-/-) deficient cells were cultured in RPMI 1640 medium containing 10% fetal bovine serum and 1% penicillin-streptomycin at 37°C, 5% CO2. Only cells in logarithmic growth phase were used for experiments.
(§1) Cell Proliferation Inhibition Assay: The compound's inhibitory activity on HCT-116 MTAP(-/-) deficient cells was assessed using the Cell-Titer Glo assay kit. Adjusting cell concentration, 40 µL was seeded into a 384-well plate and cultured overnight at 37°C, 5% CO2. Each well received 40 nL of the compound, achieving concentrations from 0 to 10,000 nM (starting concentration 10,000 nM, 3-fold dilution, 10 points), with 0.1% DMSO. The cell plate was incubated for 8 days at 37°C, 5% CO2. Cell-Titer Glo reagent (40 µL) was added to measure cell viability.

[2] = tested on: HCT-116 MTAP wild-type cells; assay: Inhibition of proliferation of HCT-116 MTAP wild-type cells (Cell-Titer Glo); type: cell-based; conditions: 8 days
Method: Test 2: Compound's inhibitory activity on proliferation of HCT-116 MTAP wild-type cells.
Materials and Cells: HCT-116 MTAP wild-type cells obtained from Kyinno Bio (China); RPMI-1640 medium, fetal bovine serum, and penicillin-streptomycin purchased from Thermo Fisher Scientific (America); 384-well plates from PerkinElmer (America); Cell-Titer Glo assay kit from Promega (America).
Cell Culture: HCT116 MTAP wild-type cells were cultured in RPMI 1640 medium containing 10% fetal bovine serum and 1% penicillin-streptomycin at 37°C, 5% CO2. Only cells in logarithmic growth phase were used for experiments.
as §1, with “MTAP wild-type” for “MTAP(-/-) deficient”

CC1OC[C@@H](N(C)C(=O)c2cc3c(cn2)nc(N)c2cncn23)c2ccc(F)cc21 (stereo partly drawn) [Example 62, 4-amino-N-((4S)-7-fluoro-1-methylisochroman-4-yl)-N-methyli midazo[1,5-a]pyrido[3,4-e]pyrazine-8-carb oxamide]
IC50 ([1]; Homo sapiens, HCT-116, 192 h): 19.7 nM
IC50 ([2]; Homo sapiens, HCT-116, 192 h): 3710 nM

CN(C(=O)c1cc2c(cc1Cl)nc(N)c1cncn12)[C@@H]1COc2ccc(F)cc21 [Example 63, (S)-4-amino-7-chloro-N-(5-fluoro-2,3-dihydrobenzofuran-3-yl)-N-methylimidazo[1,5-a] quinoxaline-8-carbox amide]
IC50 ([1]; Homo sapiens, HCT-116, 192 h): 46.8 nM
IC50 ([2]; Homo sapiens, HCT-116, 192 h): 3260 nM

Cc1ncn2c1c(N)nc1ccc(C(=O)N(C)[C@@H]3COc4ccc(F)cc43)cc12 [Example 64, (S)-4-amino-N-(5-fluoro-2,3-dihydrobenzofuran-3-yl)-N,3-dimet hylimidazo[1,5-a]quin oxaline-8-carboxamide]
IC50 ([1]; Homo sapiens, HCT-116, 192 h): 278 nM
IC50 ([2]; Homo sapiens, HCT-116, 192 h): > 20000 nM

N#Cc1ccc2c(c1)OCC2N(C(=O)c1ccc2nc(N)c3cncn3c2c1)C1CC1 (centres unmarked) [Example 65, 4-amino-N-(6-cyano-2,3-dihydrobenzofuran-3-yl)-N-cyclopropyl imidazo[1,5-a]quinox aline-8-carboxamide]
IC50 ([1]; Homo sapiens, HCT-116, 192 h): 95.3 nM
IC50 ([2]; Homo sapiens, HCT-116, 192 h): 5950 nM

CN(C(=O)c1ccc2nc(N)c3cncn3c2c1)[C@@H]1COc2ccc(F)cc21 [Example 66, (S)-4-amino-N-(5-fluoro-2,3-dihydrobenzofuran-3-yl)-N-methyli midazo[1,5-a]quinoxa line-8-carboxamide]
IC50 ([1]; Homo sapiens, HCT-116, 192 h): 2260 nM
IC50 ([2]; Homo sapiens, HCT-116, 192 h): > 20000 nM

Nc1nc2cnc(C(=O)N(C3CC3)C3COc4cc(C(F)(F)F)ccc43)cc2n2cncc12 (centres unmarked) [Example 67, 4-amino-N-cyclopropyl-N-(6-(trifluoromethyl)-2,3-dihydrobenzof uran-3-yl)imidazo[1,5-a]pyrido[3,4-e]pyrazine-8-carboxamide]
IC50 ([1]; Homo sapiens, HCT-116, 192 h): 35.6 nM
IC50 ([2]; Homo sapiens, HCT-116, 192 h): 3640 nM

CN(C(=O)c1ccc2nc(N)c3cncn3c2c1)[C@@H]1COc2cc(F)ccc21 [Example 68, (S)-4-amino-N-(6-fluoro-2,3-dihydrobenzofuran-3-yl)-N-methyli midazo[1,5-a]quinoxa line-8-carboxamide]
IC50 ([1]; Homo sapiens, HCT-116, 192 h): 382 nM
IC50 ([2]; Homo sapiens, HCT-116, 192 h): 8570 nM

Cc1ncn2c1c(N)nc1ccc(C(=O)N(C3CC3)C3COc4cc(C(F)(F)F)ccc43)cc12 (centres unmarked) [Example 69, 4-amino-N-cyclopropyl-3-methyl-N-(6-(trifluoromethyl)-2,3-dihydrobenzofuran-3-yl)i midazo[1,5-a]quinoxa line-8-carboxamide]
IC50 ([1]; Homo sapiens, HCT-116, 192 h): 87.1 nM
IC50 ([2]; Homo sapiens, HCT-116, 192 h): 5020 nM

Cc1ncc(-c2ccc3c(c2)OCC3N(C(=O)c2ccc3nc(N)c4cncn4c3c2)C2CC2)cn1 (centres unmarked) [Example 72, 4-amino-N-cyclopropyl-N-(6-(2-methylpyrimidin-5-yl)-2,3-dihydrobenzofuran-3-yl)imi dazo[1,5-a]quinoxaline-8-carboxamide]
IC50 ([1]; Homo sapiens, HCT-116, 192 h): 117 nM
IC50 ([2]; Homo sapiens, HCT-116, 192 h): > 20000 nM

Nc1nc2ccc(C(=O)N(C3CC3)C3COc4cc(C(F)(F)F)ccc43)cc2n2cncc12 (centres unmarked) [Example 73, 4-amino-N-cyclopropyl-N-(6-(trifluoromethyl)-2,3-dihydrobenzof uran-3-yl)imidazo[1,5-a]quinoxaline-8-carb oxamide]
IC50 ([1]; Homo sapiens, HCT-116, 192 h): 55.5 nM
IC50 ([2]; Homo sapiens, HCT-116, 192 h): 4620 nM

Nc1nc2ccc(C(=O)N(C3CC3)C3COc4cc(Br)ccc43)cc2n2cncc12 (centres unmarked) [Example 74, 4-amino-N-(6-bromo-2,3-dihydrobenzofuran-3-yl)-N-cyclopropyl imidazo[1,5-a]quinox aline-8-carboxamide]
IC50 [1]: 148 nM
IC50 [2]: 5990 nM

CN(C(=O)c1ccc2nc(N)c3cncn3c2c1)[C@@H]1COc2cc(NS(=O)(=O)C(F)(F)F)ccc21 [Example 76, (S)-4-amino-N-methyl-N-(6-((trifluoromethyl)sulfonamido)-2,3-dihydrobenzofuran-3-yl)imida zo[1,5-a]quinoxaline-8-carboxamide]
IC50 ([1]; Homo sapiens, HCT-116, 192 h): > 3000 nM
IC50 ([2]; Homo sapiens, HCT-116, 192 h): > 10000 nM

CC1OC[C@@H](N(C)C(=O)c2ccc3nc(N)c4cncn4c3c2)c2cc(F)ccc21 (stereo partly drawn) [Example 77, 4-amino-N-((4S)-6-fluoro-1-methylisochroman-4-yl)-N-methylimidazo[1,5-a]quinoxaline-8-carboxamide]
IC50 ([1]; Homo sapiens, HCT-116, 192 h): 101 nM
IC50 ([2]; Homo sapiens, HCT-116, 192 h): 4260 nM

CC1OC[C@@H](N(C)C(=O)c2ccc3nc(N)c4cncn4c3c2)c2cccnc21 (stereo partly drawn) [Example 108, 4-amino-N-methyl-N-((5S)-8-methyl-5,8-di hydro-6H-pyrano[3,4-b]pyridin-5-yl)imidaz o[1,5-a]quinoxaline-8-carboxamide]
IC50 ([1]; Homo sapiens, HCT-116, 192 h): 121 nM
IC50 ([2]; Homo sapiens, HCT-116, 192 h): > 10000 nM

CCOC(=O)c1ncn2c1c(N)nc1ccc(C(=O)N(C)C3COc4cc(C(F)(F)F)ccc43)cc12 (centres unmarked) [Example 109, ethyl 4-amino-8-(methyl(6-(trifluoromethyl)-2,3-dihydrobenzofuran-3-yl)carbamoyl)imidazo[1,5-a]quinoxaline-3-carboxylate]
IC50 ([1]; Homo sapiens, HCT-116, 192 h): > 3000 nM
IC50 ([2]; Homo sapiens, HCT-116, 192 h): 9090 nM

CN(C(=O)c1cc2c(cc1F)nc(N)c1cncn12)C1CCOc2cc(C(F)(F)F)cnc21 (centres unmarked) [Example 110, 4-amino-7-fluoro-N-methyl-N-(7-(trifluoromethyl)-3,4-dihydro-2 H-pyrano[3,2-b]pyridin-4-yl)imidazo[1,5-a] quinoxaline-8-carbox amide]
IC50 ([1]; Homo sapiens, HCT-116, 192 h): > 3000 nM
IC50 ([2]; Homo sapiens, HCT-116, 192 h): > 10000 nM

CN(C(=O)c1ccc2nc(N)c3cnc(Br)n3c2c1)[C@@H]1COc2cc(C(F)(F)F)ccc21 [Example 111, (S)-4-amino-1-bromo-N-methyl-N-(6-(trifluoromethyl)-2,3-dihydrobenzofuran-3-yl)imidazo[1,5-a]quinoxaline-8-carboxamide]
IC50 ([1]; Homo sapiens, HCT-116, 192 h): 500 nM
IC50 ([2]; Homo sapiens, HCT-116, 192 h): > 10000 nM

CN(C(=O)c1ccc2nc(N)c3cncn3c2c1)[C@@H]1COc2cc(C(F)F)ccc21 [Example 112, (S)-4-amino-N-(6-(difluoromethyl)-2,3-dihydrobenzofuran-3-yl)-N-methylimidazo[1,5-a]quinoxaline-8-carboxamide]
IC50 ([1]; Homo sapiens, HCT-116, 192 h): 338 nM
IC50 ([2]; Homo sapiens, HCT-116, 192 h): > 10000 nM

CN(C(=O)c1cc2c(cc1F)nc(N)c1cncn12)[C@@H]1CCOc2cc(-c3cnn(C)c3)ccc21 [Example 114, (R)-4-amino-7-fluoro-N-methyl-N-(7-(1-methyl-1H-pyrazol-4-yl)chroman-4-yl)imidazo [1,5-a]quinoxaline-8-c arboxamide]
IC50 ([1]; Homo sapiens, HCT-116, 192 h): 146 nM
IC50 ([2]; Homo sapiens, HCT-116, 192 h): > 10000 nM

CN(C(=O)c1cc2c(cc1F)nc(N)c1cncn12)[C@@H]1CCOc2cc(-c3ccnn3C)ccc21 [Example 115, (R)-4-amino-7-fluoro-N-methyl-N-(7-(1-methyl-1H-pyrazol-5-yl)chroman-4-yl)imidazo[1,5-a]quinoxaline-8-carboxamide]
IC50 ([1]; Homo sapiens, HCT-116, 192 h): 84.3 nM
IC50 ([2]; Homo sapiens, HCT-116, 192 h): > 10000 nM

Cc1cc(-c2ccc3c(c2)OCC[C@H]3N(C)C(=O)c2cc3c(cc2F)nc(N)c2cncn23)on1 [Example 116, (R)-4-amino-7-fluoro-N-methyl-N-(7-(3-methylisoxazol-5-yl)chroman-4-yl)imidazo[1,5-a]quinoxaline-8-carb oxamide]
IC50 ([1]; Homo sapiens, HCT-116, 192 h): 109 nM
IC50 ([2]; Homo sapiens, HCT-116, 192 h): > 10000 nM

CN(C(=O)c1ccc2nc(N)c3cnc(C4CC4)n3c2c1)[C@@H]1COc2cc(C(F)(F)F)ccc21 [Example 118, (S)-4-amino-1-cyclopro pyl-N-methyl-N-(6-(trifluoromethyl)-2,3-dihydrobenzofuran-3-yl)imida zo[1,5-a]quinoxaline-8-carboxamide]
IC50 ([1]; Homo sapiens, HCT-116, 192 h): 2930 nM
IC50 ([2]; Homo sapiens, HCT-116, 192 h): > 10000 nM

Nc1nc2cc(F)c(C(=O)N(C3CC3)C3COc4cc(N5CCOCC5)ccc43)cc2n2cncc12 (centres unmarked) [Example 121, 4-amino-N-cyclopropyl-7-fluoro-N-(6-mor pholino-2,3-dihydrobenzofuran-3-yl)imidaz o[1,5-a]quinoxaline-8-carboxamide]
IC50 ([1]; Homo sapiens, HCT-116, 192 h): 73.7 nM
IC50 ([2]; Homo sapiens, HCT-116, 192 h): > 10000 nM

CN(C(=O)c1cc2c(cn1)nc(N)c1cncn12)C1CCc2ccccc21 (centres unmarked) [Example 125, 4-amino-N-(2,3-dihydro-1H-inden-1-yl)-N-methylimidazo[1,5-a] pyrido[3,4-e]pyrazine-8-carboxamide]
IC50 ([1]; Homo sapiens, HCT-116, 192 h): 2450 nM
IC50 ([2]; Homo sapiens, HCT-116, 192 h): > 10000 nM

Nc1nc2ncc(C(=O)N(C3CC3)C3COc4cc(C(F)(F)F)ccc43)cc2n2cncc12 (centres unmarked) [Example 126, 4-amino-N-cyclopropyl-N-(6-(trifluoromethyl)-2,3-dihydrobenzof uran-3-yl)imidazo[1,5-a]pyrido[2,3-e]pyrazine-8-carboxamide]
IC50 ([1]; Homo sapiens, HCT-116, 192 h): 592 nM
IC50 ([2]; Homo sapiens, HCT-116, 192 h): > 20000 nM

Source: patent EP4775208A1, “USE OF PRMT5 INHIBITOR IN TREATMENT OF TUMORS OR CANCERS” (Apeiron Therapeutics (Hong Kong) Ltd., priority 2023, dated 2025)
